Assay results published in US8178501B2, “Antibiotic combinations for providing total solution to the treatment of infections” (priority 2004, dated 2012).
Counter-ions that a name gives are not always drawn.

Columns and labels:
Assay in all cases: Bacterial Susceptibility Test, zone size
Format in all cases: cell-based
E. coli = tested on: E. coli
Protocol: (§1) The combination of amikacin and cefepime on different microorganisms was taken to analyze the efficiency of combination in comparison with the individual components of the drug. Different concentrations were selected mentioned to as highest, high, low and lowest in the data. Zone size was determined in mm.

Pseudomonas auriginosa = tested on: Pseudomonas auriginosa
Protocol: as §1

Klebsiella pneumoniae = tested on: Klebsiella pneumoniae
Protocol: as §1

Streptococcus pneumoniae = tested on: Streptococcus pneumoniae
Protocol: as §1

Enterococcus faecalis = tested on: Enterococcus faecalis
Protocol: as §1

Staphylococcus aureus = tested on: Staphylococcus aureus
Protocol: as §1

Structure (SMILES)	Zone (E. coli; concentration High)	Zone (E. coli; concentration Highest)	Zone (E. coli; concentration Low)	Zone (E. coli; concentration Lowest)	Zone (Pseudomonas auriginosa; concentration High)	Zone (Pseudomonas auriginosa; concentration Highest)	Zone (Pseudomonas auriginosa; concentration Low)	Zone (Pseudomonas auriginosa; concentration Lowest)	Zone (Klebsiella pneumoniae; concentration High)	Zone (Klebsiella pneumoniae; concentration Highest)	Zone (Klebsiella pneumoniae; concentration Low)	Zone (Klebsiella pneumoniae; concentration Lowest)	Zone (Streptococcus pneumoniae; concentration High)	Zone (Streptococcus pneumoniae; concentration Highest)	Zone (Streptococcus pneumoniae; concentration Low)	Zone (Streptococcus pneumoniae; concentration Lowest)	Zone (Enterococcus faecalis; concentration High)	Zone (Enterococcus faecalis; concentration Highest)	Zone (Enterococcus faecalis; concentration Low)	Zone (Enterococcus faecalis; concentration Lowest)	other results
CO/N=C(\C(=O)N[C@@H]1C(=O)N2C(C(=O)O)=C(C[N+]3(C)CCCC3)CS[C@H]12)c1csc(N)n1.Cl.O.[Cl-] [Cefepime, 1-[[(6R,7R)-7-[2-(2-amino-4-thiazolyl)-glyoxylamido]-2-carboxy-8-oxo-5-thia-1-azabicyclo[4.2.0]oct-2-en-3-yl]methyl]-1-methyl-pyrrolidinium chloride, 7^2-(Z)-(O-methyloxime), monohydrochloride, monohydrate]	30.16 mm	32.24 mm	24.20 mm	16.42 mm	27.56 mm	30.94 mm	18.81 mm	12.08 mm	32.35 mm	36.02 mm	31.96 mm	30.83 mm	28.10 mm	30.32 mm	23.02 mm	19.54 mm	25.52 mm	28.98 mm	19.92 mm	12.65 mm	Zone (Staphylococcus aureus; concentration High): 28.44 mm; Zone (Staphylococcus aureus; concentration Highest): 31.06 mm; Zone (Staphylococcus aureus; concentration Low): 21.18 mm; Zone (Staphylococcus aureus; concentration Lowest): 16.24 mm
NCC[C@H](O)C(=O)N[C@@H]1C[C@H](N)[C@@H](O[C@H]2O[C@H](CN)[C@@H](O)[C@H](O)[C@H]2O)[C@H](O)[C@H]1O[C@H]1O[C@H](CO)[C@@H](O)[C@H](N)[C@H]1O [Amikacin, D-Streptamine, O-3-amino-3-deoxy-α-d-glucopyranosyl)1→6)-O-[6-amino-6-deoxy-α-D-glucopyranosyl(1→4)]-N^1-(4-amino-2-hydroxy-1-oxobutyl)-2-deoxy-,(S)-,sulfate (1:2)(salt)]	29.02 mm	30.90 mm	22.06 mm	15.02 mm	21.81 mm	26.93 mm	16.05 mm	09.81 mm	31.25 mm	34.98 mm	31.02 mm	29.98 mm	24.28 mm	26.58 mm	18.34 mm	12.32 mm	23.24 mm	27.29 mm	17.97 mm	08.05 mm	Zone (Staphylococcus aureus; concentration High): 24.42 mm; Zone (Staphylococcus aureus; concentration Highest): 28.92 mm; Zone (Staphylococcus aureus; concentration Low): 18.79 mm; Zone (Staphylococcus aureus; concentration Lowest): 10.09 mm
